Reference: patent publication US20240043427A1 (Gilead Sciences, Inc., priority 2020, published 2024)

Tests used:
[1] = target: T1, CD73 (Homo sapiens (Human), UniProt P21589); assay type: biochemical; settings: 1 mM NaH2PO4 in enzyme buffer, CD73 0.3 nM, AMP 15 uM
[2] = target: T1, CD73; assay: MDA-MB-231 Cell Based CD73 Activity Assay (DMEM); settings: MDA-MB-231-GFP cells, DMEM medium with 10% human plasma, 200 uM AMP

T1 sequence (P21589 27-574): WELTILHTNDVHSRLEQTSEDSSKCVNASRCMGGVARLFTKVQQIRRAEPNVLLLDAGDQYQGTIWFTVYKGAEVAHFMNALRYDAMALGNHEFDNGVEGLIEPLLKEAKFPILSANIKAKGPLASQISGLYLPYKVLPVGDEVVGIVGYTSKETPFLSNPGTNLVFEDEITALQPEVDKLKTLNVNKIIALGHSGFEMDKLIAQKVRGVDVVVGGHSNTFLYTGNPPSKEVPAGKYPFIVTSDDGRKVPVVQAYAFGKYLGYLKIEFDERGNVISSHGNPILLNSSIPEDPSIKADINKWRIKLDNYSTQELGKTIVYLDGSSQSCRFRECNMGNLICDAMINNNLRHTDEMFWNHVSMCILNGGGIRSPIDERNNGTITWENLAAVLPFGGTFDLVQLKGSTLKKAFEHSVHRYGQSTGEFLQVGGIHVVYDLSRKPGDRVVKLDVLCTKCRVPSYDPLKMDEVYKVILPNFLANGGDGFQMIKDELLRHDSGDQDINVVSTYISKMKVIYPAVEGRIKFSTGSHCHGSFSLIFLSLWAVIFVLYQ

IC50 [1] [nM] | EC50 [2] [nM] | SMILES
6.06 | 1.02 | O=c1[nH]cc(-c2cc([C@@H]3C[C@H]3c3cc4c(cn3)cnn4CC(F)(F)F)c3ncc(F)n3n2)c(=O)[nH]1 [Example 612, 5-(3-fluoro-8-((1R,2R)-2-(1-(2,2,2-trifluoroethyl)-1H-pyrazolo[4,3-c]pyridin-6-yl)cyclopropyl)imidazo[1,2-b]pyridazin-6-yl)pyrimidine-2,4(1H,3H)-dione]
0.78 | 0.22 | CC(n1ncc2ccc([C@H]3C[C@@H]3c3cc(-c4c[nH]c(=O)[nH]c4=O)nn4ccnc34)cc21)C(F)(F)F (stereo partly drawn) [Example 617, 5-(8-((1S,2S)-2-(1-(1,1,1-trifluoropropan-2-yl)-1H-indazol-6-yl)cyclopropyl)imidazo[1,2-b]pyridazin-6-yl)pyrimidine-2,4(1H,3H)-dione]
0.34 | 0.13 | O=c1[nH]cc(-c2cc([C@H]3C[C@@H]3c3cc(F)c4cnn(CC(F)(F)F)c4c3)c3ncc(F)n3n2)c(=O)[nH]1 [Example 618, 5-(3-fluoro-8-((1S,2S)-2-(4-fluoro-1-(2,2,2-trifluoroethyl)-1H-indazol-6-yl)cyclopropyl)imidazo[1,2-b]pyridazin-6-yl)pyrimidine-2,4(1H,3H)-dione]
1.22 | 0.07 | O=c1[nH]cc(-c2cc([C@H]3C[C@@H]3c3ccc4nc(C(F)(F)F)n(CC(F)(F)F)c4c3)c3nccn3n2)c(=O)[nH]1 [Example 620, 5-(8-((1S,2S)-2-(1-(2,2,2-trifluoroethyl)-2-(trifluoromethyl)-1H-benzo[d]imidazol-6-yl)cyclopropyl)imidazo[1,2-b]pyridazin-6-yl)pyrimidine-2,4(1H,3H)-dione]
0.73 | 0.23 | O=c1[nH]cc(-c2cc([C@H]3C[C@@H]3c3cnc4cnn(CC(F)(F)F)c4c3)c3ncc(F)n3n2)c(=O)[nH]1 [Example 628, 5-(3-fluoro-8-((1S,2S)-2-(1-(2,2,2-trifluoroethyl)-1H-pyrazolo[4,3-b]pyridin-6-yl)cyclopropyl)imidazo[1,2-b]pyridazin-6-yl)pyrimidine-2,4(1H,3H)-dione]
0.2 | 0.05 | O=c1[nH]cc(-c2cc([C@H]3C[C@@H]3c3ccc4cnn(CC(F)(F)F)c4c3F)c3ncnn3n2)c(=O)[nH]1 [Example 629, 5-(8-((1S,2S)-2-(7-fluoro-1-(2,2,2-trifluoroethyl)-1H-indazol-6-yl)cyclopropyl)-[1,2,4]triazolo[1,5-b]pyridazin-6-yl)pyrimidine-2,4(1H,3H)-dione]
1.55 | 7.08 | O=c1[nH]cc(-c2cc([C@H]3C[C@@H]3c3ccc(Cl)cc3)c3nccn3n2)c(=O)[nH]1 [Example 633, 5-(8-((1S,2S)-2-(4-chlorophenyl)cyclopropyl)imidazo[1,2-b]pyridazin-6-yl)pyrimidine-2,4(1H,3H)-dione]
5.19 | 39 | O=c1[nH]cc(-c2cc([C@@H]3C[C@H]3c3ccc(Cl)cc3)c3nccn3n2)c(=O)[nH]1 [Example 634, 5-(8-((1R,2R)-2-(4-chlorophenyl)cyclopropyl)imidazo[1,2-b]pyridazin-6-yl)pyrimidine-2,4(1H,3H)-dione]
2.08 | 2.75 | O=c1[nH]cc(-c2cc([C@H]3C[C@@H]3c3ncc(C(F)(F)F)cc3F)c3nccn3n2)c(=O)[nH]1 [Example 635, 5-(8-((1S,2S)-2-(3-fluoro-5-(trifluoromethyl)pyridin-2-yl)cyclopropyl)imidazo[1,2-b]pyridazin-6-yl)pyrimidine-2,4(1H,3H)-dione]
0.34 | 0.13 | O=c1[nH]cc(-c2cc([C@H]3C[C@@H]3c3cc4c(cn3)cnn4CC(F)(F)F)c3nccn3n2)c(=O)[nH]1 [Example 636, 5-(8-((1S,2S)-2-(1-(2,2,2-trifluoroethyl)-1H-pyrazolo[4,3-c]pyridin-6-yl)cyclopropyl)imidazo[1,2-b]pyridazin-6-yl)pyrimidine-2,4(1H,3H)-dione]
2.06 | 0.39 | O=c1[nH]cc(-c2cc([C@H]3C[C@@H]3c3cc4c(cn3)c(C(F)(F)F)nn4CC(F)(F)F)c3nccn3n2)c(=O)[nH]1 [Example 637, 5-(8-((1S,2S)-2-(1-(2,2,2-trifluoroethyl)-3-(trifluoromethyl)-1H-pyrazolo[4,3-c]pyridin-6-yl)cyclopropyl)imidazo[1,2-b]pyridazin-6-yl)pyrimidine-2,4(1H,3H)-dione]
2.42 | 0.58 | O=c1[nH]cc(-c2cc([C@H]3C[C@@H]3c3ccc4nc5n(c4c3)[C@H](C(F)(F)F)CC5)c3nccn3n2)c(=O)[nH]1 [Example 639, 5-(8-((1S,2S)-2-((S)-1-(trifluoromethyl)-2,3-dihydro-1H-benzo[d]pyrrolo[1,2-a]imidazol-7-yl)cyclopropyl)imidazo[1,2-b]pyridazin-6-yl)pyrimidine-2,4(1H,3H)-dione]
1.6 | 0.12 | O=c1[nH]cc(-c2cc([C@H]3C[C@@H]3c3ccc4nc5n(c4c3)[C@@H](C(F)(F)F)CC5)c3nccn3n2)c(=O)[nH]1 [Example 640, 5-(8-((1S,2S)-2-((R)-1-(trifluoromethyl)-2,3-dihydro-1H-benzo[d]pyrrolo[1,2-a]imidazol-7-yl)cyclopropyl)imidazo[1,2-b]pyridazin-6-yl)pyrimidine-2,4(1H,3H)-dione]
77.5 | 207 | O=c1[nH]cc(-c2cc(N3CC4CC3C4)c3nccn3n2)c(=O)[nH]1 [Example 641, 5-(8-(2-azabicyclo[2.1.1]hexan-2-yl)imidazo[1,2-b]pyridazin-6-yl)pyrimidine-2,4(1H,3H)-dione]
36.4 | 98.9 | O=c1[nH]cc(-c2cc(N3CC4CCC3C4)c3nccn3n2)c(=O)[nH]1 (centres unmarked) [Example 643, 5-(8-(2-azabicyclo[2.2.1]heptan-2-yl)imidazo[1,2-b]pyridazin-6-yl)pyrimidine-2,4(1H,3H)-dione]
49 | 79.6 | O=c1[nH]cc(-c2cc(N3CC4CC4(C(F)(F)F)C3)c3nccn3n2)c(=O)[nH]1 (centres unmarked) [Example 645, 5-(8-(1-(trifluoromethyl)-3-azabicyclo[3.1.0]hexan-3-yl)imidazo[1,2-b]pyridazin-6-yl)pyrimidine-2,4(1H,3H)-dione]
129 | 234 | O=c1[nH]cc(-c2cc(N3CC4CCC3CC4)c3nccn3n2)c(=O)[nH]1 [Example 647, 5-(8-(2-azabicyclo[2.2.2]octan-2-yl)imidazo[1,2-b]pyridazin-6-yl)pyrimidine-2,4(1H,3H)-dione]
11.7 | 21.7 | CC1(C#N)CCN(c2cc(-c3c[nH]c(=O)[nH]c3=O)nn3ccnc23)C1 (centres unmarked) [Example 649, 1-(6-(2,4-dioxo-1,2,3,4-tetrahydropyrimidin-5-yl)imidazo[1,2-b]pyridazin-8-yl)-3-methylpyrrolidine-3-carbonitrile]
129 | 480 | O=c1[nH]cc(-c2cc(N3CCC4CCC3C4)c3nccn3n2)c(=O)[nH]1 (centres unmarked) [Example 651, 5-(8-(2-azabicyclo[3.2.1]octan-2-yl)imidazo[1,2-b]pyridazin-6-yl)pyrimidine-2,4(1H,3H)-dione]
19.6 | 79.6 | O=c1[nH]cc(-c2cc(N3CCC(CO)(CCl)C3)c3nccn3n2)c(=O)[nH]1 (centres unmarked) [Example 652, 5-(8-(3-(chloromethyl)-3-(hydroxymethyl)pyrrolidin-1-yl)imidazo[1,2-b]pyridazin-6-yl)pyrimidine-2,4(1H,3H)-dione]
25.3 | 130 | O=c1[nH]cc(-c2cc(N3CCC4(COC4)C3)c3nccn3n2)c(=O)[nH]1 [Example 653, 5-(8-(2-oxa-6-azaspiro[3.4]octan-6-yl)imidazo[1,2-b]pyridazin-6-yl)pyrimidine-2,4(1H,3H)-dione]
40.4 | 254 | O=C(CC(F)(F)F)N1CCC12CCN(c1cc(-c3c[nH]c(=O)[nH]c3=O)nn3ccnc13)C2 (centres unmarked) [Example 655, 5-(8-(1-(3,3,3-trifluoropropanoyl)-1,6-diazaspiro[3.4]octan-6-yl)imidazo[1,2-b]pyridazin-6-yl)pyrimidine-2,4(1H,3H)-dione]
10.1 | 57 | CC(=O)N1CCC12CCN(c1cc(-c3c[nH]c(=O)[nH]c3=O)nn3ccnc13)C2 (centres unmarked) [Example 656, 5-(8-(1-acetyl-1,6-diazaspiro[3.4]octan-6-yl)imidazo[1,2-b]pyridazin-6-yl)pyrimidine-2,4(1H,3H)-dione]
81.3 | 227 | CC(C)C(=O)N1CCC12CCN(c1cc(-c3c[nH]c(=O)[nH]c3=O)nn3ccnc13)C2 (centres unmarked) [Example 657, 5-(8-(1-isobutyryl-1,6-diazaspiro[3.4]octan-6-yl)imidazo[1,2-b]pyridazin-6-yl)pyrimidine-2,4(1H,3H)-dione]

SMILES | IC50 [1] [nM] | EC50 [2] [nM]
O=c1[nH]cc(-c2cc(N3C4CCC3CC4)c3nccn3n2)c(=O)[nH]1 [Example 646, 5-(8-(7-azabicyclo[2.2.1]heptan-7-yl)imidazo[1,2-b]pyridazin-6-yl)pyrimidine-2,4(1H,3H)-dione] | > 250 | 338
O=c1[nH]cc(-c2cc(N3C4CCCC3CC4)c3nccn3n2)c(=O)[nH]1 [Example 648, 5-(8-(8-azabicyclo[3.2.1]octan-8-yl)imidazo[1,2-b]pyridazin-6-yl)pyrimidine-2,4(1H,3H)-dione] | > 250 | 1950
O=c1[nH]cc(-c2cc(N3CC4CC(C4)C3)c3nccn3n2)c(=O)[nH]1 [Example 650, 5-(8-(3-azabicyclo[3.1.1]heptan-3-yl)imidazo[1,2-b]pyridazin-6-yl)pyrimidine-2,4(1H,3H)-dione] | 6.86 | 18.8
CC(C)NC(=O)CC1CCN(c2cc(-c3c[nH]c(=O)[nH]c3=O)nn3ccnc23)C1 (centres unmarked) [Example 654, 2-(1-(6-(2,4-dioxo-1,2,3,4-tetrahydropyrimidin-5-yl)imidazo[1,2-b]pyridazin-8-yl)pyrrolidin-3-yl)-N-isopropylacetamide] | 54.5 | 133
